Experimental data as given in patent US10206394B2, “Herbicidal compounds” (Syngenta Participations AG, priority 2014, dated 2019).
Like-named read-outs stand apart in the source and are kept apart here.

What was measured:
Test in all cases: Glasshouse assay for herbicidal activity (pre- and post-emergence), percentage phytotoxicity
Format in all cases: in vivo
[1] = system: Avena fatua (AVEFA); conditions: Avena fatua
Procedure, shortened: (§1)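 Visually rated damage, 0–100%. PRE spray 1 d after sowing, scored 20 DAA; POST spray ~12 d, scored 15 DAA. Glasshouse at 65% humidity, 16 h day.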

[2] = system: Lolium perenne (LOLPE); conditions: Lolium perenne
Procedure, shortened: as §1

[3] = system: Echinochloa crus-galli (ECHCG); conditions: Echinochloa crus-galli
Procedure, shortened: as §1

[4] = system: Alopecurus myosuroides (ALOMY); conditions: Alopecurus myosuroides
Procedure, shortened: as §1

[5] = post-emergence, 360 h, POST-emergence, rate 250 g/ha, visual score 15 DAA (100%=total damage, 0%=no damage), read-out: Post-emergence herbicidal activity (percentage phytotoxicity) AVEFA POST
[6] = pre-emergence, 480 h, PRE-emergence, rate 250 g/ha, visual score 20 DAA (100%=total damage, 0%=no damage), read-out: Pre-emergence herbicidal activity (percentage phytotoxicity) AVEFA PRE
[7] = post-emergence, 360 h, POST-emergence, rate 250 g/ha, visual score 15 DAA (100%=total damage, 0%=no damage), read-out: Post-emergence herbicidal activity (percentage phytotoxicity) LOLPE POST
[8] = pre-emergence, 480 h, PRE-emergence, rate 250 g/ha, visual score 20 DAA (100%=total damage, 0%=no damage), read-out: Pre-emergence herbicidal activity (percentage phytotoxicity) LOLPE PRE
[9] = post-emergence, 360 h, POST-emergence, rate 250 g/ha, visual score 15 DAA (100%=total damage, 0%=no damage), read-out: Post-emergence herbicidal activity (percentage phytotoxicity) ECHCG POST
[10] = pre-emergence, 480 h, PRE-emergence, rate 250 g/ha, visual score 20 DAA (100%=total damage, 0%=no damage), read-out: Pre-emergence herbicidal activity (percentage phytotoxicity) ECHCG PRE
[11] = post-emergence, 360 h, POST-emergence, rate 250 g/ha, visual score 15 DAA (100%=total damage, 0%=no damage), read-out: Post-emergence herbicidal activity (percentage phytotoxicity) ALOMY POST
[12] = pre-emergence, 480 h, PRE-emergence, rate 250 g/ha, visual score 20 DAA (100%=total damage, 0%=no damage), read-out: Pre-emergence herbicidal activity (percentage phytotoxicity) ALOMY PRE
[13] = post-emergence, 360 h, 250 g/ha, post-emergence, 15 DAA, visual assessment (100%=total damage, 0%=no damage), read-out: Post-emergence herbicidal activity (percentage phytotoxicity) AVEFA POST
[14] = pre-emergence, 480 h, 250 g/ha, pre-emergence, 20 DAA, visual assessment (100%=total damage, 0%=no damage), read-out: Pre-emergence herbicidal activity (percentage phytotoxicity) AVEFA PRE
[15] = post-emergence, 360 h, 250 g/ha, post-emergence, 15 DAA, visual assessment (100%=total damage, 0%=no damage), read-out: Post-emergence herbicidal activity (percentage phytotoxicity) LOLPE POST
[16] = pre-emergence, 480 h, 250 g/ha, pre-emergence, 20 DAA, visual assessment (100%=total damage, 0%=no damage), read-out: Pre-emergence herbicidal activity (percentage phytotoxicity) LOLPE PRE
[17] = post-emergence, 360 h, 250 g/ha, post-emergence, 15 DAA, visual assessment (100%=total damage, 0%=no damage), read-out: Post-emergence herbicidal activity (percentage phytotoxicity) ECHCG POST
[18] = pre-emergence, 480 h, 250 g/ha, pre-emergence, 20 DAA, visual assessment (100%=total damage, 0%=no damage), read-out: Pre-emergence herbicidal activity (percentage phytotoxicity) ECHCG PRE
[19] = post-emergence, 360 h, 250 g/ha, post-emergence, 15 DAA, visual assessment (100%=total damage, 0%=no damage), read-out: Post-emergence herbicidal activity (percentage phytotoxicity) ALOMY POST
[20] = pre-emergence, 480 h, 250 g/ha, pre-emergence, 20 DAA, visual assessment (100%=total damage, 0%=no damage), read-out: Pre-emergence herbicidal activity (percentage phytotoxicity) ALOMY PRE

SMILES | pest or weed control at 250 g/ha [1, 5] | pest or weed control at 250 g/ha [1, 6] | pest or weed control at 250 g/ha [2, 7] | pest or weed control at 250 g/ha [2, 8] | pest or weed control at 250 g/ha [3, 9] | pest or weed control at 250 g/ha [3, 10] | pest or weed control at 250 g/ha [4, 11] | pest or weed control at 250 g/ha [4, 12] | other results
CCc1cc(OCC(F)(F)F)cc(C)c1C1C(=O)CC(CC(=O)NC(C)C)C1=O (stereo not drawn) [Compound B217] | 100% | 100% | 100% | 100% | 100% | 100% | 100% | 100% | –
C/C=C/c1cc(C)c(C2C(=O)CC(CC(=O)N(C)C(C)(C)C)C2=O)c(C)c1 (stereo not drawn) [Compound B249] | 70% | 30% | 60% | 70% | 80% | 80% | 70% | 80% | –
Cc1cc(-c2ncc(C#N)cn2)cc(C)c1C1C(=O)CC(CC(=O)NC(C)(C)C)C1=O (stereo not drawn) [Compound B270] | 100% | 90% | 90% | 100% | 100% | 100% | 100% | 100% | –
COc1ccc(C(=O)OC2=C(c3c(C)cc(-c4ncc(Cl)cn4)cc3C)C(=O)C(CC(=O)NC(C)(C)C)C2)cc1 (stereo not drawn) [Compound P1, [4-[2-(tert-butylamino)-2-oxo-ethyl]-2-[4-(5-chloropyrimidin-2-yl)-2,6-dimethyl-phenyl]-3-oxo-cyclopenten-1-yl] 4-methoxybenzoate] | – | – | – | – | – | – | – | – | pest or weed control at 250 g/ha ([1]; post-emergence, 360 h, post-emergence, 250 g/ha, 15 DAA, visual score (100%=total damage; 0%=no damage), read-out: AVEFA POST herbicidal activity (percentage phytotoxicity)): 100%; pest or weed control at 250 g/ha ([1]; pre-emergence, 480 h, pre-emergence, 250 g/ha, 20 DAA, visual score (100%=total damage; 0%=no damage), read-out: AVEFA PRE herbicidal activity (percentage phytotoxicity)): 100%; pest or weed control at 250 g/ha ([2]; post-emergence, 360 h, post-emergence, 250 g/ha, 15 DAA, visual score (100%=total damage; 0%=no damage), read-out: LOLPE POST herbicidal activity (percentage phytotoxicity)): 100%; pest or weed control at 250 g/ha ([2]; pre-emergence, 480 h, pre-emergence, 250 g/ha, 20 DAA, visual score (100%=total damage; 0%=no damage), read-out: LOLPE PRE herbicidal activity (percentage phytotoxicity)): 100%; pest or weed control at 250 g/ha ([3]; post-emergence, 360 h, post-emergence, 250 g/ha, 15 DAA, visual score (100%=total damage; 0%=no damage), read-out: ECHCG POST herbicidal activity (percentage phytotoxicity)): 100%; pest or weed control at 250 g/ha ([3]; pre-emergence, 480 h, pre-emergence, 250 g/ha, 20 DAA, visual score (100%=total damage; 0%=no damage), read-out: ECHCG PRE herbicidal activity (percentage phytotoxicity)): 100%; pest or weed control at 250 g/ha ([4]; post-emergence, 360 h, post-emergence, 250 g/ha, 15 DAA, visual score (100%=total damage; 0%=no damage), read-out: ALOMY POST herbicidal activity (percentage phytotoxicity)): 100%; pest or weed control at 250 g/ha ([4]; pre-emergence, 480 h, pre-emergence, 250 g/ha, 20 DAA, visual score (100%=total damage; 0%=no damage), read-out: ALOMY PRE herbicidal activity (percentage phytotoxicity)): 100%
COCC(C)(C)NC(=O)CC1CC(=O)C(c2c(C)cc(-c3ncc(Cl)cc3F)cc2C)C1=O (stereo not drawn) [Compound B325] | 100% | 70% | 100% | 100% | 100% | 100% | 100% | 100% | –
Cc1cc(C)c(C2C(=O)CC(CC(=O)Nc3ccc(C#N)cc3)C2=O)c(C)c1 (stereo not drawn) [Compound B1] | – | – | – | – | – | – | – | – | pest or weed control at 250 g/ha [1, 13]: 0%; pest or weed control at 250 g/ha [1, 14]: 0%; pest or weed control at 250 g/ha [2, 15]: 20%; pest or weed control at 250 g/ha [2, 16]: 20%; pest or weed control at 250 g/ha [3, 17]: 60%; pest or weed control at 250 g/ha [3, 18]: 70%; pest or weed control at 250 g/ha [4, 19]: 0%; pest or weed control at 250 g/ha [4, 20]: 20%
Cc1cc(-c2ccc(Cl)cn2)cc(C)c1C1C(=O)CC(CC(=O)NCc2ncccc2Cl)C1=O (stereo not drawn) [Compound A132] | – | – | – | – | – | – | – | – | pest or weed control at 250 g/ha ([1]; post-emergence, 360 h, Rate 250 g/ha, post-emergence, assessed visually 15 DAA, 100%=total damage, 0%=no damage, read-out: Post-emergence herbicidal activity (percentage phytotoxicity) AVEFA POST): 100%; pest or weed control at 250 g/ha ([1]; pre-emergence, 480 h, Rate 250 g/ha, pre-emergence, assessed visually 20 DAA, 100%=total damage, 0%=no damage, read-out: Pre-emergence herbicidal activity (percentage phytotoxicity) AVEFA PRE): 90%; pest or weed control at 250 g/ha ([2]; post-emergence, 360 h, Rate 250 g/ha, post-emergence, assessed visually 15 DAA, 100%=total damage, 0%=no damage, read-out: Post-emergence herbicidal activity (percentage phytotoxicity) LOLPE POST): 100%; pest or weed control at 250 g/ha ([2]; pre-emergence, 480 h, Rate 250 g/ha, pre-emergence, assessed visually 20 DAA, 100%=total damage, 0%=no damage, read-out: Pre-emergence herbicidal activity (percentage phytotoxicity) LOLPE PRE): 90%; pest or weed control at 250 g/ha ([3]; post-emergence, 360 h, Rate 250 g/ha, post-emergence, assessed visually 15 DAA, 100%=total damage, 0%=no damage, read-out: Post-emergence herbicidal activity (percentage phytotoxicity) ECHCG POST): 100%; pest or weed control at 250 g/ha ([3]; pre-emergence, 480 h, Rate 250 g/ha, pre-emergence, assessed visually 20 DAA, 100%=total damage, 0%=no damage, read-out: Pre-emergence herbicidal activity (percentage phytotoxicity) ECHCG PRE): 100%; pest or weed control at 250 g/ha ([4]; post-emergence, 360 h, Rate 250 g/ha, post-emergence, assessed visually 15 DAA, 100%=total damage, 0%=no damage, read-out: Post-emergence herbicidal activity (percentage phytotoxicity) ALOMY POST): 100%; pest or weed control at 250 g/ha ([4]; pre-emergence, 480 h, Rate 250 g/ha, pre-emergence, assessed visually 20 DAA, 100%=total damage, 0%=no damage, read-out: Pre-emergence herbicidal activity (percentage phytotoxicity) ALOMY PRE): 90%
Cc1cc(Br)cc(C)c1C1C(=O)CC(CC(=O)NCC2CC2C(F)F)C1=O (stereo not drawn) [Compound B142] | – | – | – | – | – | – | – | – | pest or weed control at 250 g/ha [1, 13]: 90%; pest or weed control at 250 g/ha [1, 14]: 70%; pest or weed control at 250 g/ha [2, 15]: 90%; pest or weed control at 250 g/ha [2, 16]: 70%; pest or weed control at 250 g/ha [3, 17]: 80%; pest or weed control at 250 g/ha [3, 18]: 0%; pest or weed control at 250 g/ha [4, 19]: 90%; pest or weed control at 250 g/ha [4, 20]: 90%
Cc1cc(OCC(F)(F)F)cc(C)c1C1C(=O)CC(CC(=O)NCc2cccc(F)c2)C1=O (stereo not drawn) [Compound B205] | 90% | 80% | 90% | 90% | 90% | 90% | 100% | 100% | –
